# Data as given in US8563738B2, “Ligands for copper-catalyzed azide-alkyne cycloaddition reactions” (The Scripps Research Institute, priority 2007, dated 2013).
# Entries after “also recorded” stand apart in the source; their conditions may differ.
# What was measured:
# [1] = Ligand screening by reaction calorimetry (peak reaction power); parameters: key to calorimetry ligand category: reactions that failed to produce a signal in the calorimeter were classified as identifying “inactive” ligands; moderate: give observable, but not very strong, calorimetry signals; conditions: 65° C.
# From the text: Reaction calorimetry was used to evaluate the relative merits of various ligands under practical conditions of organic synthesis, e.g., involving high concentrations of azide and alkyne reagents and low loadings of catalyst. After correction for instrumental heat transfer parameters, thermograms provide a direct real-time measure of reaction rate (power output); integration gives the overall time-vs.-completion curve. […] All such measurements were made in the same 4:1 DMSO:aqueous solvent as before, but at 65° C. rather than room temperature, in order to keep the product triazole in solution at the higher concentrations used.
# Calorimetry was performed in an Omnical INSIGHT® 10-channel reaction calorimeter using 40 mL glass vials. In a typical run all the reaction components but one were introduced into the vials inside an inert atmosphere glovebox, and vials were sealed with septum caps. The last reaction component to be added was placed in a Hamilton gastight syringe. The vials and syringes were then allowed to equilibrate inside the preheated instrument (65° C.) for 30 minutes. The reaction was started in all vials by depressing all of the syringes simultaneously. Two vials out of ten were charged only with solvent to obtain readings allowing for compensation for the heat of mixing. The thermograms registered in these two channels upon addition of the last component were used to construct the baseline for the other 8 channels.
# Since heat is not transferred to the instrument sensor instantaneously, the thermogram registered by the instrument is dependent on the characteristics of the instrument and reaction vessel. Correction for these extraneous factors must be applied to the recorded thermograms to obtain instrument-independent data (Rosner, T.; et al. J. Am. Chem. Soc. 2001, 123, 1848-1855; Liu, J.-S.; et al. Thermochimica Acta 1994, 236, 113-122). The appropriate dynamic correction function is built into the instrument operating software. Use of vendor supplied software produces the same result as manual correction.
# By the same token, catalysts such as Cu.1 that give observable, but not very strong, calorimetry signals cannot be fully analyzed by converting thermograms to completion curves, because a significant amount of the total energy output is lost below the detection threshold of the instrument. TBTA (1) falls into this category, classified as “moderate” ligands. […] However, peak power values (i.e., maximum reaction rate) provided a reproducible relative measure of relative catalytic efficiency.
# Ligands were screened under the following conditions: 250 mM benzyl azide, 454 mM phenylacetylene, 2 mM CuSO4, 4 mM ligand, 25 mM sodium ascorbate. Phenylacetylene was the last component added. Initial screening was performed with at least two independent trials for each ligand. Candidates showing promising activity were then examined with at least three independent trials to obtain reliable estimations of experimental error.
# [2] = Second-order rate constants of CuAAC reaction by LC-MS of quenched aliquots; conditions: 4:1 DMSO:buffer, Tris buffer over a standard range of concentrations
structure (smiles),measurement,setting,value
"c1ccc(Cn2cc(CN(Cc3cn(Cc4ccccc4)nn3)Cc3cn(Cc4ccccc4)nn3)nn2)cc1 [TBTA (1), tris((1-benzyl-1H-1,2,3-triazol-4-yl)methyl)amine, reference compound]",calorimetry ligand category,"[1]; 250 mM benzyl azide, 454 mM phenylacetylene, 2 mM CuSO4, 4 mM ligand, 25 mM sodium ascorbate",moderate
same,relative catalytic activity by calorimetry,"[1]; high reactant concentrations, 1% Cu, 4:1 DMSO:aqueous",sluggish catalyst compared to many of the others tested; also recorded: lower half of the ligands tested
same,effect of Tris buffer on rate,[2],slowed significantly
